{"source": "patent US20080003219A1", "about": "“DELIVERY OF AN OCULAR AGENT” (MINU, L.L.C., priority 2005, published 2008)", "origin": "cited, not measured here", "molecules": {"B1": {"name": "ranibizumab (antibody, chains of the INN, looked up, V domains shown)", "VH": "EVQLVESGGGLVQPGGSLRLSCAASGYDFTHYGMNWVRQAPGKGLEWVGWINTYTGEPTYAADFKRRFTFSLDTSKSTAYLQMNSLRAEDTAVYYCAKYPYYYGTSHWYFDVWGQGTLVTVSS", "VL": "DIQLTQSPSSLSASVGDRVTITCSASQDISNYLNWYQQKPGKAPKVLIYFTSSLHSGVPSRFSGSGSGTDFTLTISSLQPEDFATYYCQQYSTVPWTFGQGTKVEIK", "modifications": "Fab"}}, "key": {"[1]": {"test_system": "neovascular age-related macular degeneration", "details": "1 mg single intravitreal injection"}, "[2]": {"test_system": "chronic myeloid leukemia (CML)", "details": "CML patients who initially respond"}, "[3]": {"test_system": "choroidal neovascularization", "details": "intravitreal injection in combination with verteporfin PDT, compared with PDT only"}}, "data": [{"molecule": "bevacizumab", "values": [{"measurement": "observed inflammation", "setting": "[1]", "value": "no observed inflammation"}, {"measurement": "subretinal fluid", "setting": "[1]; after one week", "value": "resolution of subretinal fluid after one week"}, {"measurement": "macular appearance", "setting": "[1]; duration of improvement", "value": "improved macular appearance maintained for at least four weeks"}]}, {"molecule": "Cc1ccc(NC(=O)c2ccc(CN3CCN(C)CC3)cc2)cc1Nc1nccc(-c2cccnc2)n1", "note": "[imatinib]", "values": [{"measurement": "initially responding CML patients who subsequently develop drug resistance", "setting": "[2]", "value": "about 10%"}]}, {"molecule": "B1", "values": [{"measurement": "reduction in angiographic leakage", "setting": "[3]", "value": "greater reduction in angiographic leakage than PDT only"}]}]}
